Like-named read-outs stand apart in the source and are kept apart here.
Columns and labels:
murine leukemia L1210 = assay: Cytostatic activity assay, L1210 cells; assay type: cell-based; conditions: read-out: IC50 L1210 (compound concentration required to inhibit tumor cell proliferation by 50%)
human lymphocyte CEM = assay: Cytostatic activity assay, CEM cells; assay type: cell-based; conditions: read-out: IC50 CEM (compound concentration required to inhibit tumor cell proliferation by 50%)
HIV-1 (IIIB) = assay: Inhibition of HIV-1 (IIIB)-induced cytopathicity (giant cell formation) in CEM cells; assay type: cell-based; conditions: read-out: EC50 HIV-1 (concentration required to inhibit HIV-induced giant cell formation by 50%); HIV-1, CEM cell cultures
Description: (§1) A variety of glycopeptide antibiotic derivatives of vancomycin, eremomycin and teicoplanin including their aglycon derivatives were evaluated for their inhibitory activity against HIV-1 (IIIB) and HIV-2(ROD) in CEM cell cultures.

HIV-2(ROD) = assay: Inhibition of HIV-2 (ROD)-induced cytopathicity (giant cell formation) in CEM cells; assay type: cell-based; conditions: read-out: EC50 HIV-2 (concentration required to inhibit HIV-induced giant cell formation by 50%); HIV-2, CEM cell cultures
Description: as §1

[1] = tested on: human lymphocyte Molt4/clone 8; assay: Cytostatic activity assay, Molt4/clone 8 cells; assay type: cell-based; conditions: read-out: IC50 Molt4/C8 (compound concentration required to inhibit tumor cell proliferation by 50%)
HEL cells [2] = conditions: anti-VZV table
VZV (wild-type strains) = assay: Anti-VZV assay (wild-type strains): virus-induced cytopathicity in HEL cell cultures; assay type: cell-based, varicella-zoster virus; conditions: HEL cell cultures
HEL cells [3] = conditions: read-out: CC50 (HEL); HEL cells; anti-VZV table
[4] = VZV strain OKA, read-out: EC50 VZV (OKA)
[5] = VZV strain YS, read-out: EC50 VZV (YS)

Compound	IC50 (murine leukemia L1210) [µM]	IC50 (human lymphocyte CEM) [µM]	EC50 (HIV-1 (IIIB)) [µM]	EC50 (HIV-2(ROD)) [µM]	IC50 [1] [µM]	MTC (HEL) (HEL cells [2])	EC50 (VZV (wild-type strains); [4]) [µM]	EC50 (VZV (wild-type strains); [5]) [µM]	CC50 (HEL cells [3]) [µM]
CN[C@H](CC(C)C)C(=O)N[C@H]1C(=O)N[C@@H](CC(N)=O)C(=O)N[C@H]2C(=O)N[C@H]3C(=O)N[C@H](C(=O)N[C@H](C(=O)O)c4cc(O)cc(O)c4-c4cc3ccc4O)[C@H](O)c3ccc(c(Cl)c3)Oc3cc2cc(c3O)Oc2ccc(cc2Cl)[C@H]1O [Vancomycin aglycon]	> 500	> 500	65 ± 7.1	250	> 500				
CCCCCCCCCC[N+](C)(C)CCCNCc1c(O)cc2c(c1O)-c1cc(ccc1O)C1NC(=O)C3NC(=O)C4NC(=O)C(Cc5ccc(cc5)Oc5cc3cc(c5OC3OC(C(=O)O)C(O)C(O)C3N)Oc3ccc(cc3Cl)C(O)C(NC1=O)C(=O)NC2C(=O)O)NC(=O)C(NC)c1ccc(O)c(c1)Oc1cc(O)c(Cl)c4c1 (centres unmarked) [Compound 95]		92	3.5	≥ 20					
NC1C(=O)NC2Cc3ccc(c(Cl)c3)Oc3cc4cc(c3OCc3ccc(-c5ccccc5)cc3)Oc3ccc(cc3Cl)C(O)C3NC(=O)C(NC(=O)C4NC(=O)C(NC2=O)c2cc(O)cc(c2)Oc2cc1ccc2O)c1ccc(O)c(c1)-c1c(O)cc(O)cc1C(C(=O)O)NC3=O (centres unmarked) [Compound 128]						20 µM	1.8	0.8	48
CCCCc1ccc(CNCc2c(O)cc3c(c2O)-c2cc(ccc2O)C2NC(=O)C4NC(=O)C5NC(=O)C(Cc6ccc(c(Cl)c6)Oc6cc4cc(c6O)Oc4ccc(cc4Cl)C(O)C(NC2=O)C(=O)NC3C(=O)O)NC(=O)C(N)c2ccc(O)c(c2)Oc2cc(O)cc5c2)cc1 (centres unmarked) [Compound 136]						20 to 50 µM	3.1	4.1	> 50
CCCCc1ccc(CNC2C(Oc3c4cc5cc3Oc3ccc(cc3Cl)C(O)C3NC(=O)C(NC(=O)C5NC(=O)C5NC(=O)C(Cc6ccc(cc6)O4)NC(=O)C(NC)c4ccc(O)c(c4)Oc4cc(O)c(Cl)c5c4)c4ccc(O)c(c4)-c4c(O)cc(O)cc4C(C(=O)NCCCN(C)C)NC3=O)OC(C(=O)NCCCN(C)C)C(O)C2O)cc1 (centres unmarked) [Compound 12]	36 ± 14	> 250	12 ± 3.5	> 50	66 ± 20				
O=C1NC2C(=O)NC3C(=O)NC4C(=O)NC(C(=O)NC(C(=O)O)c5cc(O)cc(O)c5-c5cc4ccc5O)C(O)c4ccc(c(Cl)c4)Oc4cc3cc(c4O)Oc3ccc(cc3Cl)CC1NC(=O)C(NC(=O)C13CC4CC(CC(C4)C1)C3)c1ccc(O)c(c1)Oc1cc(O)cc2c1 (centres unmarked) [Compound 164]			10	4					
O=C(NC1C(=O)NC2Cc3ccc(c(Cl)c3)Oc3cc4cc(c3O)Oc3ccc(cc3Cl)C(O)C3NC(=O)C(NC(=O)C4NC(=O)C(NC2=O)c2cc(O)cc(c2)Oc2cc1ccc2O)c1ccc(O)c(c1)-c1c(O)cc(O)cc1C(C(=O)O)NC3=O)OC12CC3CC(CC(C3)C1)C2 (centres unmarked) [Compound 49]	22 ± 0.1	104 ± 3	13 ± 9.9	6 ± 1.4	25 ± 0.99				
CCCCCCCNC(=O)C1NC(=O)C2NC(=O)C(NC(=O)C3NC(=O)C(CC(N)=O)NC(=O)C(NC(=O)C(CC(C)C)NC)C(O)c4ccc(c(Cl)c4)Oc4cc3cc(c4OC3OC(CO)C(O)C(O)C3OC3CC(C)(N)C(O)C(C)O3)Oc3ccc(cc3)C2OC2CC(C)(N)C(O)C(C)O2)c2ccc(O)c(c2)-c2c(O)cc(O)cc21 (centres unmarked) [Compound 77]						≧20-50 μM	7	5	129
CCCCCCCCCCNCc1c(O)cc2c(c1O)-c1cc(ccc1O)C1NC(=O)C3NC(=O)C4NC(=O)C(Cc5ccc(c(Cl)c5)Oc5cc3cc(c5O)Oc3ccc(cc3Cl)C(O)C(NC1=O)C(=O)NC2C(=O)NCCCN(C)C)NC(=O)C(NC(=O)C(N)CCCCN)c1ccc(O)c(c1)Oc1cc(O)cc4c1 (centres unmarked) [Compound 121]						≧5-20 μM	2.3	3.1	40
CCCCc1ccc(CNCc2c(O)cc3c(c2O)-c2cc(ccc2O)C2NC(=O)C4NC(=O)C5NC(=O)C(Cc6ccc(c(Cl)c6)Oc6cc4cc(c6O)Oc4ccc(cc4Cl)C(O)C(NC2=O)C(=O)NC3C(=O)NC)NC(=O)C(N)c2ccc(O)c(c2)Oc2cc(O)cc5c2)cc1 (centres unmarked) [Compound 48]	> 100	> 100	9.7 ± 9	12.3 ± 6.8	> 100				
CCCCc1ccc(CNC2C(=O)NC3Cc4ccc(c(Cl)c4)Oc4cc5cc(c4O)Oc4ccc(cc4Cl)C(O)C4NC(=O)C(NC(=O)C5NC(=O)C(NC3=O)c3cc(O)cc(c3)Oc3cc2ccc3O)c2ccc(O)c(c2)-c2c(cc(O)c(CN3CCN(Cc5ccc(-c6ccccc6)cc5)CC3)c2O)C(C(=O)N2CCN(Cc3ccc(-c5ccccc5)cc3)CC2)NC4=O)cc1 (centres unmarked) [Compound 123]						≧5-200 μM	2.8		> 50
NC1C(=O)NC2Cc3ccc(c(Cl)c3)Oc3cc4cc(c3O)Oc3ccc(cc3Cl)C(O)C3NC(=O)C(NC(=O)C4NC(=O)C(NC2=O)c2cc(O)cc(c2)Oc2cc1ccc2O)c1ccc(O)c(c1)-c1c(cc(O)c(CN2CCN(Cc4ccc(Cl)cc4)CC2)c1O)C(C(=O)O)NC3=O (centres unmarked) [Compound 119]						20 to 400 µM	5		> 50
CNCc1c(O)cc2c(c1O)-c1cc(ccc1O)C1NC(=O)C3NC(=O)C4NC(=O)C(Cc5ccc(c(Cl)c5)Oc5cc3cc(c5O)Oc3ccc(cc3Cl)C(O)C(NC1=O)C(=O)NC2C(=O)O)NC(=O)C(NC(=O)OC(C)(C)C)c1ccc(O)c(c1)Oc1cc(O)cc4c1 (centres unmarked) [Compound 140]						≧50-200 μM	13		> 50
CN(Cc1ccc(-c2ccccc2)cc1)Cc1c(O)cc2c(c1O)-c1cc(ccc1O)C1NC(=O)C3NC(=O)C4NC(=O)C(Cc5ccc(c(Cl)c5)Oc5cc3cc(c5O)Oc3ccc(cc3Cl)C(O)C(NC1=O)C(=O)NC2C(=O)O)NC(=O)C(N)c1ccc(O)c(c1)Oc1cc(O)cc4c1 (centres unmarked) [Compound 117]						≧5-80 μM	2.9	2.7	> 50
NC1C(=O)NC2Cc3ccc(c(Cl)c3)Oc3cc4cc(c3O)Oc3ccc(cc3Cl)C(O)C3NC(=O)C(NC(=O)C4NC(=O)C(NC2=O)c2cc(O)cc(c2)Oc2cc1ccc2O)c1ccc(O)c(c1)-c1c(O)cc(O)cc1C(C(=O)N1CCN(N=Cc2ccc(Cl)cc2)CC1)NC3=O (centres unmarked) [Compound 113]						≧5-20 μM	0.68	0.42	> 50
CCCCN(CCCC)c1ccc(CNC(=O)C2NC(=O)C3NC(=O)C(NC(=O)C4NC(=O)C5NC(=O)C(Cc6ccc(c(Cl)c6)Oc6cc4cc(c6O)Oc4ccc(cc4Cl)C3O)NC(=O)C(N)c3ccc(O)c(c3)Oc3cc(O)cc5c3)c3ccc(O)c(c3)-c3c(O)cc(O)cc32)cc1 (centres unmarked) [Compound 137]						>5 to 20 µM	0.22	0.43	98
CCCCc1ccc(CNCC(=O)N2CCN(Cc3c(O)cc4c(c3O)-c3cc(ccc3O)C3NC(=O)C5NC(=O)C6NC(=O)C(Cc7ccc(c(Cl)c7)Oc7cc5cc(c7O)Oc5ccc(cc5Cl)C(O)C(NC3=O)C(=O)NC4C(=O)O)NC(=O)C(N)c3ccc(O)c(c3)Oc3cc(O)cc6c3)CC2)cc1 (centres unmarked) [Compound 142]						50 µM	20		> 50
CNC(=O)C1NC(=O)C2NC(=O)C(NC(=O)C3NC(=O)C4NC(=O)C(Cc5ccc(c(Cl)c5)Oc5cc3cc(c5O)Oc3ccc(cc3Cl)C2O)NC(=O)C(N)c2ccc(O)c(c2)Oc2cc(O)cc4c2)c2ccc(O)c(c2)-c2c(O)cc(O)cc21 (centres unmarked) [Compound 120]						≧20-200 μM	9	10	> 200
CCCCc1ccc(CNC2C(Oc3c4cc5cc3Oc3ccc(cc3Cl)C(O)C3NC(=O)C(NC(=O)C5NC(=O)C5NC(=O)C(Cc6ccc(cc6)O4)NC(=O)C(NC)c4ccc(O)c(c4)Oc4cc(O)c(Cl)c5c4)c4ccc(O)c(c4)-c4c(cc(O)c(CN5CCN(Cc6ccc(-c7ccccc7)cc6)CC5)c4O)C(C(=O)O)NC3=O)OC(C(=O)O)C(O)C2O)cc1 (centres unmarked) [Compound 93]		81	3.5	22					
CCCCCCCCCC(=O)N1CCN(Cc2c(O)cc3c(c2O)-c2cc(ccc2O)C2NC(=O)C4NC(=O)C5NC(=O)C(Cc6ccc(c(Cl)c6)Oc6cc4cc(c6O)Oc4ccc(cc4Cl)C(O)C(NC2=O)C(=O)NC3C(=O)O)NC(=O)C(N)c2ccc(O)c(c2)Oc2cc(O)cc5c2)CC1 (centres unmarked) [Compound 141]						50 µM	7.1		> 50
CCCCc1ccc(CNC(=O)C2NC(=O)C3NC(=O)C(NC(=O)C4NC(=O)C(CC(N)=O)NC(=O)C(NC(=O)C(CC(C)C)NC)C(O)c5ccc(c(Cl)c5)Oc5cc4cc(c5OC4OC(CO)C(O)C(O)C4OC4CC(C)(N)C(O)C(C)O4)Oc4ccc(cc4)C3OC3CC(C)(N)C(O)C(C)O3)c3ccc(O)c(c3)-c3c(O)cc(O)cc32)cc1 (centres unmarked) [Compound 76]						≧5-20 μM	2.7	> 2	98
CCCCc1ccc(CNCC(=O)N2CCN(Cc3c(O)cc4c(c3O)-c3cc(ccc3O)C3NC(=O)C5NC(=O)C6NC(=O)C(Cc7ccc(c(Cl)c7)Oc7cc5cc(c7O)Oc5ccc(cc5Cl)C(O)C(NC3=O)C(=O)NC4C(=O)NC)NC(=O)C(N)c3ccc(O)c(c3)Oc3cc(O)cc6c3)CC2)cc1 (centres unmarked) [Compound 143]						≧20-50 μM	2.8	2.6	> 50

— patent US20050250677A1, “Glycopeptide antibiotic derivatives” (priority 2002, published 2005)
